Assay results: patent US10975056B2 (GlaxoSmithKline Intellectual Property Development Limited, priority 2016, dated 2021)
Several values for one entry are separate records, joined by “and”; a condition that tells them apart may be missing. Equal values may be shown once. Where a name gives a salt, the structure may show the parent alone. Read-outs that look alike come from different tables or passages of the source.

Experiments:
[1] = target: DNMT1 (Homo sapiens, UniProt P26358); test: DNMT1 biochemical activity, breaklight assay and/or SPA assay
[2] = tested on: erythroid progenitor cells (EPCs); test: Fetal hemoglobin (HbF) ELISA in day 7 erythroid progenitor cells; format: cell-based, human; settings: Homo sapiens, Erythroid progenitor cell, HbF ELISA, day 7 EPCs, 5 days; read-out: EPC ELISA (pEC50 category) (converted);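 note: for fetal hemoglobin induction normalized to vehicle-treated cells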
Method in brief: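 Day 7 EPCs from human bone marrow CD34+ cells were plated at 1,000 cells/well in media with 3 U/mL rhEPO. They were exposed to a 22-point dilution ([…]) for 5 days at 37 °C. Lysate HbF was measured by sandwich ELISA (OD450) and normalized to DMSO control wells.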

[3] = binned activity in either the breaklight or the SPA assay, read-out: DNMT1 BioChemical (pIC50 category) (converted)
[4] = binned activity in either the breaklight or the SPA assay
[5] = breaklight assay and/or SPA assay, repeated experimental runs, read-out: average pIC50 against DNMT1 (converted)

Sequence of DNMT1 (P26358 whole entry, looked up): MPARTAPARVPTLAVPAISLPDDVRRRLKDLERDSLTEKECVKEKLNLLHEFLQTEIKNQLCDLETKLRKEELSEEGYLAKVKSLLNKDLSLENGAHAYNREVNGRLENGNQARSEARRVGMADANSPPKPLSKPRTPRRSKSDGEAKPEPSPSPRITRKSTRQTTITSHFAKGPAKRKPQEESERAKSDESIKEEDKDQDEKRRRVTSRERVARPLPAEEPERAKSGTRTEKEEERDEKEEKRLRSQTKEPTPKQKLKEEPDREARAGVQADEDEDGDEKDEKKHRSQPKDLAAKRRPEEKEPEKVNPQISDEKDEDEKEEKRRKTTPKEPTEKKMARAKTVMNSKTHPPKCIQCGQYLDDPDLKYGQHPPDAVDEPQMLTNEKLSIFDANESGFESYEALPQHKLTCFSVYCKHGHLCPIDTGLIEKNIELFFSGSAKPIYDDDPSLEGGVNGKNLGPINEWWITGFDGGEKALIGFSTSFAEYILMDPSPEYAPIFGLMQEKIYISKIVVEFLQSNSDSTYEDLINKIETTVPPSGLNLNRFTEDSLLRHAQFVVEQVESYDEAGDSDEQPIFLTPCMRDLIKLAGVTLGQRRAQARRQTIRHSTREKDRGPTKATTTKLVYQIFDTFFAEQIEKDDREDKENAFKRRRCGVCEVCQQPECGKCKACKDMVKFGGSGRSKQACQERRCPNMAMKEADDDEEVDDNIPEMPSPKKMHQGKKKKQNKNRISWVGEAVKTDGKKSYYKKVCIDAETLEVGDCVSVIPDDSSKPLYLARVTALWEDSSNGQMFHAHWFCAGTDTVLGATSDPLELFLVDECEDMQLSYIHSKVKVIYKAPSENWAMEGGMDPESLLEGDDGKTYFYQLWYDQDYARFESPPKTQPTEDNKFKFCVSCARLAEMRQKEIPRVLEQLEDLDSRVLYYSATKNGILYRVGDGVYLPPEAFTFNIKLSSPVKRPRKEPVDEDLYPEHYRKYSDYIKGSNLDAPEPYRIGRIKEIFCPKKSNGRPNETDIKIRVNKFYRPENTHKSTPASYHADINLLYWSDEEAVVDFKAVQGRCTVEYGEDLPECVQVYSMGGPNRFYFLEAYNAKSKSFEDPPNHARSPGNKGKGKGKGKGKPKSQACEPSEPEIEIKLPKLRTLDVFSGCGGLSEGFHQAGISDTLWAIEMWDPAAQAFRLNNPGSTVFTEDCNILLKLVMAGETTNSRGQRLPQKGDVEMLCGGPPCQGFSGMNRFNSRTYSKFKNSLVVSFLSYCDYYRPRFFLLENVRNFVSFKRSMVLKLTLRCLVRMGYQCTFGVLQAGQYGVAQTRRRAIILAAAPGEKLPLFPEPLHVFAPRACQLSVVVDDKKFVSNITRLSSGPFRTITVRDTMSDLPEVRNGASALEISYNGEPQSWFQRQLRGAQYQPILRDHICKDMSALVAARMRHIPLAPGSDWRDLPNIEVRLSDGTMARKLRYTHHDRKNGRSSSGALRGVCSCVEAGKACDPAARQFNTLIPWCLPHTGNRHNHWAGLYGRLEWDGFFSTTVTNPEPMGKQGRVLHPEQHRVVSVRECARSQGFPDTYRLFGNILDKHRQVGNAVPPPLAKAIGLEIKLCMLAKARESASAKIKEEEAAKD

What does the source list for `CCc1c(C#N)c(SC(C(N)=O)c2ccccc2)nc(N2CCN(S(=O)(=O)c3ccccc3)CC2)c1C#N` (stereo not shown) [Example 159, 2-((3,5-Dicyano-4-ethyl-6-(4-(phenylsulfonyl)piperazin-1-yl)pyridin-2-yl)thio)-2-phenylacetamide]?
IC50 [1, 3]: 1000 to 31600 nM; EC50 [2]: 316 to 1000 nM

For `CCc1c(C#N)c(SC(C(N)=O)c2ccccc2)nc(N2CCC(C#N)CC2)c1C#N` (stereo not shown) [Example 319, 2-((3,5-Dicyano-6-(4-cyanopiperidin-1-yl)-4-ethylpyridin-2-yl)thio)-2-phenylacetamide], which IC50 [1, 3] is on record?
The IC50 was 1000 to 31600 nM.

What about the EC50 [2] of the same molecule?
The EC50 was 316 to 1000 nM.

With `CCc1c(C#N)c(SCC(N)=O)nc(SC(C(N)=O)c2ccccc2)c1C#N` (stereo not shown) [Example 235, 2-((6-((2-Amino-2-oxoethyl)thio)-3,5-dicyano-4-ethylpyridin-2-yl)thio)-2-phenylacetamide] as the molecule, how does the IC50 [1, 3] read?
Its IC50 is 316 to 1000 nM.

And the EC50 [2]?
The EC50 was 316 to 1000 nM.

How did the “DNMT1 BioChemical (pIC50 category)” value [1, 4] turn out when `CCc1c(C#N)c(SC(C(N)=O)c2ccccc2)nc(N2CCC(NCCN)CC2)c1C#N` (stereo not shown) [Example 645, 2-((6-(4-((2-aminoethyl)amino)piperidin-1-yl)-3,5-dicyano-4-ethylpyridin-2-yl)thio)-2-phenylacetamide dihydrochloride] was run?
Its value is “D (Category D: ≥6.5)”.

What about the EC50 [2] of the same molecule?
Its EC50 is 316 to 1000 nM.

How did the IC50 [1, 3] turn out when `CCc1c(C#N)c(SC(C(N)=O)c2cccc(P(C)(C)=O)c2)nc(N2CC[C@H](O)C2)c1C#N` (stereo partly drawn) [Example 420, 2-((3,5-Dicyano-4-ethyl-6-((S)-3-hydroxypyrrolidin-1-yl)pyridin-2-yl)thio)-2-(3-(dimethylphosphoryl)phenyl)acetamide] was run?
Its IC50 is 316 to 1000 nM.

And the EC50 [2]?
Its EC50 is 1000 to 31600 nM.

What does the source list for `CCc1c(C#N)c(SCc2ccc3[nH]cnc3c2)nc(N2CCCN(C)CC2)c1C#N` [Example 390, 2-(((1H-Benzo[d]imidazol-5-yl)methyl)thio)-4-ethyl-6-(4-methyl-1,4-diazepan-1-yl)pyridine-3,5-dicarbonitrile]?
IC50 [1, 3]: 316 to 1000 nM; EC50 [2]: 316 to 1000 nM

What does the source list for `CCc1c(C#N)c(SC(C(N)=O)c2ccccc2)nc(N2CCN(CCO)C(=O)C2)c1C#N` (stereo not shown) [Example 504, 2-((3,5-dicyano-4-ethyl-6-(4-(2-hydroxyethyl)-3-oxopiperazin-1-yl)pyridin-2-yl)thio)-2-phenylacetamide]?
DNMT1 BioChemical (pIC50 category) [1, 4]: D (Category D: ≥6.5); EC50 [2]: 1000 to 31600 nM

`CCc1c(C#N)c(SC(C(N)=O)c2ccccc2)nc(N2CC(CO)C2)c1C#N` (stereo not shown) [Example 262, 2-((3,5-Dicyano-4-ethyl-6-(3-(hydroxymethyl)azetidin-1-yl)pyridin-2-yl)thio)-2-phenylacetamide] was tested. Which “DNMT1 BioChemical (pIC50 category)” value [1, 4] did it give?
Its value is “D (Category D: ≥6.5)”.

What about the EC50 [2] of the same molecule?
Its EC50 is 1000 to 31600 nM.

For `CCc1c(C#N)c(SC(C(N)=O)c2ccccc2)nc(N(C)CCO)c1C#N` (stereo not shown) [Example 147, 2-(3,5-Dicyano-4-ethyl-6-((2-hydroxyethyl)(methyl)amino)pyridin-2-ylthio)-2-phenylacetamide], which IC50 [1, 3] is on record?
Its IC50 is 316 to 1000 nM.

What about the EC50 [2] of the same molecule?
The EC50 was 316 to 1000 nM.

How did the “DNMT1 BioChemical (pIC50 category)” value [1, 4] turn out when `CCc1c(C#N)c(SC(C(N)=O)c2ccccc2)nc(N(C)CC(=O)NCC(C)(C)CO)c1C#N` (stereo not shown) [Example 685, 2-((6-((2-amino-2-oxo-1-phenylethyl)thio)-3,5-dicyano-4-ethylpyridin-2-yl)(methyl)amino)-N-(3-hydroxy-2,2-dimethylpropyl)acetamide] was run?
The value was “D (Category D: ≥6.5)”.

What about the IC50 [1, 5] of the same molecule?
Its IC50 is 316 to 1000 nM and 316 nM.

And the EC50 [2]?
Its EC50 is 316 to 1000 nM.

Which IC50 [1, 3] does the source give for `CCc1c(C#N)c(SC(C(N)=O)c2cccc(P(C)(C)=O)c2)nc(N(C)C)c1C#N` (stereo not shown) [Example 419, 2-((3,5-Dicyano-6-(dimethylamino)-4-ethylpyridin-2-yl)thio)-2-(3-(dimethylphosphoryl)phenyl)acetamide] here?
Its IC50 is 316 to 1000 nM.

What about the EC50 [2] of the same molecule?
The EC50 was 1000 to 31600 nM.

With `CCc1c(C#N)c(SC(C(N)=O)c2ccccc2)nc(N(C)CC(=O)N2CC[C@H](CO)C2)c1C#N` (stereo partly drawn) [Example 648, 2-((3,5-dicyano-4-ethyl-6-((2-((S)-3-(hydroxymethyl)pyrrolidin-1-yl)-2-oxoethyl)(methyl)amino)pyridin-2-yl)thio)-2-phenylacetamide] as the molecule, how does the “DNMT1 BioChemical (pIC50 category)” value [1, 4] read?
Its value is “D (Category D: ≥6.5)”.

What about the EC50 [2] of the same molecule?
The EC50 was less than 316 nM.

What does the source list for `CCc1c(C#N)c(SCc2ccc(NC(C)=O)cc2)nc(N(C)C)c1C#N` [Example 273]?
IC50 [1, 3]: 316 to 1000 nM; EC50 [2]: 1000 to 31600 nM

`N#Cc1c(SC(C(N)=O)c2ccccc2)nc(N2CCCC(NCC(=O)O)C2)c(C#N)c1C1CC1` (stereo not shown) [Example 175, 2-((1-(6-((2-Amino-2-oxo-1-phenylethyl)thio)-3,5-dicyano-4-cyclopropvlpyridin-2-yl)piperidin-3-yl)amino)acetic acid] was tested. Which IC50 [1, 3] did it give?
The IC50 was 316 to 1000 nM.

And the EC50 [2]?
The EC50 was greater than 31600 nM.

How did the “DNMT1 BioChemical (pIC50 category)” value [1, 4] turn out when `CCc1c(C#N)c(SC(C(N)=O)c2ccccc2)nc(N2CCC(N(C)CC(C)(C)O)CC2)c1C#N` (stereo not shown) [Example 444, 2-((3,5-dicyano-4-ethyl-6-(4-((2-hydroxy-2-methylpropyl)(methyl)amino)piperidin-1-yl)pyridin-2-yl)thio)-2-phenylacetamide] was run?
Its value is “D (Category D: ≥6.5)”.

What about the EC50 [2] of the same molecule?
The EC50 was less than 316 nM.

`CCc1c(C#N)c(SC(C(N)=O)c2ccccc2)nc(N(C)Cc2nnc[nH]2)c1C#N` (stereo not shown) [Example 341, 2-((6-(((4H-1,2,4-Triazol-3-yl)methyl)(methyl)amino)-3,5-dicyano-4-ethylpyridin-2-yl)thio)-2-phenylacetamide] was tested. Which “DNMT1 BioChemical (pIC50 category)” value [1, 4] did it give?
Its value is “D (Category D: ≥6.5)”.

And the EC50 [2]?
The EC50 was less than 316 nM.

How did the “DNMT1 BioChemical (pIC50 category)” value [1, 4] turn out when `CCc1c(C#N)c(SC(C(N)=O)c2ccccc2)nc(N2CCC(NCC(C)(C)OC)CC2)c1C#N` (stereo not shown) [Example 446, 2-((3,5-dicyano-4-ethyl-6-(4-((2-methoxy-2-methylpropyl)amino)piperidin-1-yl)pyridin-2-yl)thio)-2-phenylacetamide] was run?
The value was “D (Category D: ≥6.5)”.

What about the EC50 [2] of the same molecule?
Its EC50 is less than 316 nM.

What does the source list for `N#Cc1c(SC(C(N)=O)c2ccccc2)nc(N2CCC(NC(=O)CN)CC2)c(C#N)c1C1CC1` (stereo not shown) [Example 642, 2-amino-N-(1-(6-((2-amino-2-oxo-1-phenylethyl)thio)-3,5-dicyano-4-cyclopropylpyridin-2-yl)piperidin-4-yl)acetamide formate]?
DNMT1 BioChemical (pIC50 category) [1, 4]: D (Category D: ≥6.5); EC50 [2]: 1000 to 31600 nM

Which results are given for `CCc1c(C#N)c(SC(C(N)=O)c2ccccc2)nc(N2CCC(C)(NCC(F)F)CC2)c1C#N` (stereo not shown) [Example 232]?
IC50 [1, 3]: 316 to 1000 nM; EC50 [2]: 316 to 1000 nM

What does the source list for `CCc1c(C#N)c(SC(C(N)=O)c2ccccc2)nc(N(C)CC(=O)N2C[C@@H](O)[C@@H](O)C2)c1C#N` (stereo partly drawn) [Example 647, 2-((3,5-dicyano-6-((2-((cis)-3,4-dihydroxypyrrolidin-1-yl)-2-oxoethyl)(methyl)amino)-4-ethylpyridin-2-yl)thio)-2-phenylacetamide]?
DNMT1 BioChemical (pIC50 category) [1, 4]: D (Category D: ≥6.5); EC50 [2]: 316 to 1000 nM

For `CCc1c(C#N)c(SC(C(N)=O)c2ccccc2)nc(N2CC(O)C2)c1C#N` (stereo not shown) [Example 146, 2-((3,5-Dicyano-4-ethyl-6-(3-hydroxyazetidin-1-yl)pyridin-2-yl)thio)-2-phenylacetamide], which “DNMT1 BioChemical (pIC50 category)” value [1, 4] is on record?
Its value is “D (Category D: ≥6.5)”.

And the EC50 [2]?
Its EC50 is 316 to 1000 nM.

With `CCc1c(C#N)c(SC(C(N)=O)c2ccccc2)nc(N(C)CCN2CCC(O)(CN)CC2)c1C#N` (stereo not shown) [Example 170, 2-((6-((2-(4-(Aminomethyl)-4-hydroxypiperidin-1-yl)ethyl)(methyl)amino)-3,5-dicyano-4-ethylpyridin-2-yl)thio)-2-phenylacetamide] as the molecule, how does the “DNMT1 BioChemical (pIC50 category)” value [1, 4] read?
The value was “D (Category D: ≥6.5)”.

And the EC50 [2]?
Its EC50 is 1000 to 31600 nM.

With `CCc1c(C#N)c(S[C@@H](C(N)=O)c2ccccc2)nc(N2CC[C@H](NC(=O)OC(C)(C)C)[C@H](O)C2)c1C#N` [Example 537, tert-butyl ((3R,4S)-1-(6-(((R)-2-amino-2-oxo-1-phenylethyl)thio)-3,5-dicyano-4-ethylpyridin-2-yl)-3-hydroxypiperidin-4-yl)carbamate] as the molecule, how does the “DNMT1 BioChemical (pIC50 category)” value [1, 4] read?
Its value is “D (Category D: ≥6.5)”.

What about the EC50 [2] of the same molecule?
The EC50 was 316 to 1000 nM.

`CCc1c(C#N)c(SCc2ccc(C#N)cc2)nc(N2CCCN(C)CC2)c1C#N` [Example 93, 2-((4-Cyanobenzyl)thio)-4-ethyl-6-(4-methyl-1,4-diazepan-1-yl)pyridine-3,5-dicarbonitrile] was tested. Which IC50 [1, 3] did it give?
The IC50 was 316 to 1000 nM.

What about the EC50 [2] of the same molecule?
Its EC50 is greater than 31600 nM.

Which results are given for `CCc1c(C#N)c(S[C@@H](C(N)=O)c2ccc(OC)cc2)nc(N2CC[C@H](O)C2)c1C#N` [Example 422, (R)-2-((3,5-dicyano-4-ethyl-6-((S)-3-hydroxypyrrolidin-1-yl)pyridin-2-yl)thio)-2-(4-methoxyphenyl)acetamide]?
DNMT1 BioChemical (pIC50 category) [1, 4]: D (Category D: ≥6.5); EC50 [2]: < 316 nM

Which results are given for `CCc1c(C#N)c(SCCN2CCOCC2)nc(SC(C(N)=O)c2ccccc2)c1C#N` (stereo not shown) [Example 201, 2-((3,5-Dicyano-4-ethyl-6-((2-morpholinoethyl)thio)pyridin-2-yl)thio)-2-phenylacetamide]?
IC50 [1, 3]: 316 to 1000 nM; EC50 [2]: 316 to 1000 nM

What does the source list for `CCc1c(C#N)c(S[C@@H](C(N)=O)c2ccccc2)nc(N2CC[C@@H](N)[C@H](O)C2)c1C#N` [Example 523, (R)-2-((6-((3R,4R)-4-amino-3-hydroxypiperidin-1-yl)-3,5-dicyano-4-ethylpyridin-2-yl)thio)-2-phenylacetamide 2,2,2-trifluoroacetate*]?
DNMT1 BioChemical (pIC50 category) [1, 4]: D (Category D: ≥6.5); average pIC50 against DNMT1 ([1]; breaklight assay and/or SPA assay, repeated experimental runs): > 6.5; IC50 [1, 5]: 79.4 nM; EC50 [2]: < 316 nM

`CCc1c(C#N)c(SC(C(N)=O)c2ccccc2)nc(N2CCC(N3C(=O)CNC3=O)CC2)c1C#N` (stereo not shown) [Example 250, 2-((3,5-Dicyano-6-(4-(2,5-dioxoimidazolidin-1-yl)piperidin-1-yl)-4-ethylpyridin-2-yl)thio)-2-phenylacetamide] was tested. Which IC50 [1, 3] did it give?
The IC50 was 316 to 1000 nM.

What about the EC50 [2] of the same molecule?
The EC50 was 1000 to 31600 nM.

`CC1(N)CCN(c2nc(SC(C(N)=O)c3ccccc3)c(C#N)c(C3CC3)c2C#N)CC1` (stereo not shown) [Example 321, 2-((6-(4-Amino-4-methylpiperidin-1-yl)-3,5-dicyano-4-cyclopropvlpyridin-2-yl)thio)-2-phenylacetamide] was tested. Which “DNMT1 BioChemical (pIC50 category)” value [1, 4] did it give?
The value was “D (Category D: ≥6.5)”.

What about the EC50 [2] of the same molecule?
Its EC50 is less than 316 nM.
